Numbered stars: 1 amine (or outer) side, 2 acyl side, 3 side chain; on linkers, the order of the positions; unused ones are H or OH. Bridge positions count the residues as written; N and C are the ends. Square brackets hold non-standard residues; d marks the D form. Side chains are listed from the residue outwards. Peptide text beside a SMILES is read from it. * marks the point of attachment. Trp(1-CH2COOH) = N[C@@H](Cc1cn(CC(=O)O)c2ccccc12)C(=O)O; CH2CON(CH2CH2)2NCH2COOH = O=C(O)CN1CCN(C(=O)C*)CC1; Nle(6-morpholino) = N[C@@H](CCCCN1CCOCC1)C(=O)O; Trp(7-aza) = N[C@@H](Cc1c[nH]c2ncccc12)C(=O)O; NMePhe(3-Cl) = CN[C@@H](Cc1cccc(Cl)c1)C(=O)O; Piperazinyl(4-CH2COOH) = O=C(O)CN1CCN(*)CC1; 3Pal(6-NH2) = Nc1ccc(C[C@H](N)C(=O)O)cn1; NMeY = CN[C@@H](Cc1ccc(O)cc1)C(=O)O; 4Pal = N[C@@H](Cc1ccncc1)C(=O)O; PEG4 = NCCOCCOCCOCCOCCC(=O)O; Carboxymethyl = O=C(O)C*; CO = O=C([*:1])[*:2]
Columns and labels:
[1] = target: T1, human transferrin receptor (hTfR) (Homo sapiens, UniProt P02786); experiment: SPR measurement under pH 7.4 conditions (Biacore T200, CM3 chip, hTfR captured by His Tag antibody); format: binding; settings: pH 7.4, single-cycle kinetics; read-out: hTfR SPR pH7.4 KD
T1 sequence (P02786 whole entry): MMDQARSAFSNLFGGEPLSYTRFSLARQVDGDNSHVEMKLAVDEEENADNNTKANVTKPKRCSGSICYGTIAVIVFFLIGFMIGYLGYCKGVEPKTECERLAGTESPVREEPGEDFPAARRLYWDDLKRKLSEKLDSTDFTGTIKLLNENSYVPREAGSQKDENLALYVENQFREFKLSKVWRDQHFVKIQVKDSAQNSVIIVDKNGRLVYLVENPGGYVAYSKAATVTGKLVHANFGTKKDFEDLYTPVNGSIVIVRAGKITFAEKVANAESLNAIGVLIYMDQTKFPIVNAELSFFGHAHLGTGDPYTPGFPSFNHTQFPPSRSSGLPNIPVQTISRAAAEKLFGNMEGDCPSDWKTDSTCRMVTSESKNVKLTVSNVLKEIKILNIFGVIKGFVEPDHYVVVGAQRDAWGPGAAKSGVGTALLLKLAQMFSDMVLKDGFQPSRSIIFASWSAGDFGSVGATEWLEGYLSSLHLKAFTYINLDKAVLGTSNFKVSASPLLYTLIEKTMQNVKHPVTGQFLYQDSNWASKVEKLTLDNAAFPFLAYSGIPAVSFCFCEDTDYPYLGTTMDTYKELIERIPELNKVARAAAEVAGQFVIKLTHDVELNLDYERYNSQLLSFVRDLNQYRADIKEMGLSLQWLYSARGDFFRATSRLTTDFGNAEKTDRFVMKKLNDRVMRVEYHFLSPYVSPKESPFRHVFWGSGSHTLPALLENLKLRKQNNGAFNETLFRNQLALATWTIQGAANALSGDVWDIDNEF

[2] = target: T1, human transferrin receptor (hTfR); experiment: SPR measurement under pH 6.0 conditions (Biacore T200, NTA chip, immobilized hTfR); format: binding; settings: pH 6.0, single-cycle kinetics; read-out: hTfR SPR pH6.0 KD
Experimental: Molecular interactions between the synthesized peptides and the transferrin receptor (hTfR) were evaluated by surface plasmon resonance (SPR) using the following method. The specific assay procedure is described below.
An NTA sensor chip (Cytiva) was inserted in a Biacore T200 (Cytiva), a priming operation was performed 3 times with a running buffer: HBS-P+ pH 6.0 (Cytiva), and an equilibrium state was created at a flow rate of 30 µL/min. A ligand immobilization operation was carried out at a flow rate of 10 µL/min.
The surface of the NTA sensor chip was washed with 350 mM EDTA solution, nickel ions were loaded into the carbomethyldextran chains of the sensor chip with a 500 µM aqueous nickel chloride solution, and then washing was performed with 3 mM EDTA solution. After mixing 50 µL of each of 60 mM EDC solution (Cytiva) and 650 mM NHS solution (Cytiva), the mixture was reacted for 420 seconds at a flow rate of 10 µL/min. 150 µL of 0.2 µM hTfR solution was prepared by diluting with 10 mM acetic acid solution (pH 5.0), and reacted for 420 seconds at a flow rate of 10 µL/min to immobilize hTfR on the NTA sensor chip. For the human transferrin receptor (hTfR), the recombinant hTfR described in Example 2 of WO2018/124121 was used. After immobilization, capping was performed by reacting with 1.0 M ethanolamine aqueous solution (Cytiva) at a flow rate of 10 µL/min for 420 seconds. Peptide lysate prepared in DMSO to 10 mM was diluted with the running buffer to a final concentration of 10 µM peptide lysate, and then peptide solutions of 250 nM, 125 nM, 62.5 nM, 25 nM, and 12.5 nM were prepared. The kinetics of the peptide against hTfR was obtained by SPR measurement using the above samples.
The kinetic evaluation model was single-cycle kinetics, and curve fitting was performed using Biacore T200 Evaluation Software Version 3.0 (Cytiva). The binding of the peptide to hTfR was evaluated by performing curve fitting on the obtained sensorgram by the least squares method and obtaining the kon value, the koff value, and the KD value.

| Compound | Kd [1] [nM] | Kd [2] [nM] |
| --- | --- | --- |
| CC[C@H](C)[C@@H]1NC(=O)[C@H](Cc2ccc(OCC(=O)O)cc2)NC(=O)[C@H](Cc2ccc(N)nc2)NC(=O)[C@H](CC(N)=O)NC(=O)[C@H](Cc2c[nH]c3ncccc23)NC(=O)[C@H](C(C)C)NC(=O)[C@H](Cc2cccc(Cl)c2)N(C)C(=O)[C@H](C(C)C)NC(=O)[C@H](C)NC(=O)CSC[C@@H](C(=O)NCCOCCOCCOCCOCCC(N)=O)NC(=O)[C@H](Cc2ccc(O)cc2)N(C)C(=O)[C@H](Cc2ccncc2)NC(=O)[C@H](CCCCNC(=O)N2CCN(CC(=O)O)CC2)NC(=O)[C@H](CCCCN2CCOCC2)NC(=O)[C@H]([C@@H](C)CC)NC1=O [compound 9] ({CH2CO}-AV[NMePhe(3-Cl)]V[Trp(7-aza)]N[3Pal(6-NH2)]Y(Carboxymethyl)II[Nle(6-morpholino)]K([CO-Piperazinyl(4-CH2COOH)])[4Pal][NMeY]C[PEG4]-NH2; thioether N-15) | 29.1 | 774 |
| CC[C@H](C)[C@@H]1NC(=O)[C@H](Cc2ccc(OC)cc2)NC(=O)[C@H](Cc2ccc(N)nc2)NC(=O)[C@H](CC(N)=O)NC(=O)[C@H](Cc2c[nH]c3ncccc23)NC(=O)[C@H](C(C)C)NC(=O)[C@H](Cc2cccc(Cl)c2)N(C)C(=O)[C@H](C(C)C)NC(=O)[C@H](C)NC(=O)CSC[C@@H](C(=O)NCCOCCOCCOCCOCCC(N)=O)NC(=O)[C@H](Cc2ccc(O)cc2)N(C)C(=O)[C@H](Cc2ccncc2)NC(=O)[C@H](CCCNC(=N)N)NC(=O)[C@H](CCC(=O)NC[C@H](O)[C@@H](O)[C@H](O)[C@H](O)CO)NC(=O)[C@H]([C@@H](C)CC)NC1=O [compound 10] | 2.5 | 36.6 |
| CC[C@H](C)[C@@H]1NC(=O)[C@H](Cc2ccc(OC)cc2)NC(=O)[C@H](Cc2ccc(N)nc2)NC(=O)[C@H](CC(N)=O)NC(=O)[C@H](Cc2c[nH]c3ncccc23)NC(=O)[C@H](C(C)C)NC(=O)[C@H](Cc2cccc(Cl)c2)N(C)C(=O)[C@H](C(C)C)NC(=O)[C@H](C)NC(=O)CSC[C@@H](C(=O)NCCOCCOCCOCCOCCC(N)=O)NC(=O)[C@H](Cc2ccc(O)cc2)N(C)C(=O)[C@H](Cc2ccncc2)NC(=O)[C@H](CCCNC(=N)N)NC(=O)[C@H](CCC(=O)NCCOCCOCCOCCOCCOCCOCCOCCOC)NC(=O)[C@H]([C@@H](C)CC)NC1=O [compound 11] | 7.1 | 110 |
| CC[C@H](C)[C@@H]1NC(=O)[C@H](Cc2ccc(OCC(=O)NC[C@H](O)[C@@H](O)[C@H](O)[C@H](O)CO)cc2)NC(=O)[C@H](Cc2ccc(N)nc2)NC(=O)[C@H](CC(N)=O)NC(=O)[C@H](Cc2c[nH]c3ncccc23)NC(=O)[C@H](C(C)C)NC(=O)[C@H](Cc2cccc(Cl)c2)N(C)C(=O)[C@H](C(C)C)NC(=O)[C@H](C)NC(=O)CSC[C@@H](C(=O)NCCOCCOCCOCCOCCC(N)=O)NC(=O)[C@H](Cc2ccc(O)cc2)N(C)C(=O)[C@H](Cc2ccncc2)NC(=O)[C@H](CCCNC(=N)N)NC(=O)[C@H](CCC(=O)NC[C@H](O)[C@@H](O)[C@H](O)[C@H](O)CO)NC(=O)[C@H]([C@@H](C)CC)NC1=O [compound 12] | 7.12 | 137 |
| CC[C@H](C)[C@@H]1NC(=O)[C@H](Cc2ccc(OCC(=O)O)cc2)NC(=O)[C@H](Cc2ccc(N)nc2)NC(=O)[C@H](CC(N)=O)NC(=O)[C@H](Cc2c[nH]c3ncccc23)NC(=O)[C@H](C(C)C)NC(=O)[C@H](Cc2cccc(Cl)c2)N(C)C(=O)[C@H](C(C)C)NC(=O)[C@H](C)NC(=O)CSC[C@@H](C(=O)NCCOCCOCCOCCOCCC(N)=O)NC(=O)[C@H](Cc2ccc(O)cc2)N(C)C(=O)[C@H](Cc2ccncc2)NC(=O)[C@H](CCCNC(=N)N)NC(=O)[C@H](CCCCNC(=O)N2CCN(CC(=O)O)CC2)NC(=O)[C@H]([C@@H](C)CC)NC1=O [compound 14] ({CH2CO}-AV[NMePhe(3-Cl)]V[Trp(7-aza)]N[3Pal(6-NH2)]Y(Carboxymethyl)IIK([CO-Piperazinyl(4-CH2COOH)])R[4Pal][NMeY]C[PEG4]-NH2; thioether N-15) | 30.8 | 108 |
| CC[C@H](C)[C@@H]1NC(=O)[C@H](Cc2ccc(OCC(=O)O)cc2)NC(=O)[C@H](Cc2ccc(N)nc2)NC(=O)[C@H](CC(N)=O)NC(=O)[C@H](Cc2c[nH]c3ncccc23)NC(=O)[C@H](C(C)C)NC(=O)[C@H](Cc2cccc(Cl)c2)N(C)C(=O)[C@H](C(C)C)NC(=O)[C@H](C)NC(=O)CSC[C@@H](C(=O)NCCOCCOCCOCCOCCC(N)=O)NC(=O)[C@H](Cc2ccc(O)cc2)N(C)C(=O)[C@H](Cc2ccncc2)NC(=O)[C@H](CCCCN2CCOCC2)NC(=O)[C@H](CCCCNC(=O)N2CCN(CC(=O)O)CC2)NC(=O)[C@H]([C@@H](C)CC)NC1=O [compound 15] ({CH2CO}-AV[NMePhe(3-Cl)]V[Trp(7-aza)]N[3Pal(6-NH2)]Y(Carboxymethyl)IIK([CO-Piperazinyl(4-CH2COOH)])[Nle(6-morpholino)][4Pal][NMeY]C[PEG4]-NH2; thioether N-15) | 15.9 | 102 |
| CC[C@H](C)[C@@H]1NC(=O)[C@H](Cc2ccc(OCC(=O)N3CCN(CC(=O)O)CC3)cc2)NC(=O)[C@H](Cc2ccc(O)cc2)NC(=O)[C@H](CC(N)=O)NC(=O)[C@H](Cc2c[nH]c3ncccc23)NC(=O)[C@H](C(C)C)NC(=O)[C@H](Cc2cccc(Cl)c2)N(C)C(=O)[C@H](C(C)C)NC(=O)[C@H](C)NC(=O)CSC[C@@H](C(=O)NCCOCCOCCOCCOCCC(N)=O)NC(=O)[C@H](Cc2ccc(O)cc2)N(C)C(=O)[C@H](Cc2ccncc2)NC(=O)[C@H](CCCNC(=N)N)NC(=O)[C@H](CCC(N)=O)NC(=O)[C@H]([C@@H](C)CC)NC1=O [compound 16] | 2.94 | 40.3 |
| CC[C@H](C)[C@@H]1NC(=O)[C@H](Cc2ccc(OCC(=O)N3CCN(CC(=O)O)CC3)cc2)NC(=O)[C@H](Cc2ccc(N)nc2)NC(=O)[C@H](CC(N)=O)NC(=O)[C@H](Cc2cn(CC(=O)O)c3ccccc23)NC(=O)[C@H](C(C)C)NC(=O)[C@H](Cc2cccc(Cl)c2)N(C)C(=O)[C@H](C(C)C)NC(=O)[C@H](C)NC(=O)CSC[C@@H](C(=O)NCCOCCOCCOCCOCCC(N)=O)NC(=O)[C@H](Cc2ccc(O)cc2)N(C)C(=O)[C@H](Cc2ccncc2)NC(=O)[C@H](CCCCN2CCOCC2)NC(=O)[C@H](CCCCNC(=O)N2CCN(CC(=O)O)CC2)NC(=O)[C@H]([C@@H](C)CC)NC1=O [compound 17] ({CH2CO}-AV[NMePhe(3-Cl)]V[Trp(1-CH2COOH)]N[3Pal(6-NH2)]Y(CH2CON(CH2CH2)2NCH2COOH)IIK([CO-Piperazinyl(4-CH2COOH)])[Nle(6-morpholino)][4Pal][NMeY]C[PEG4]-NH2; thioether N-15) | 4.25 | 501 |
| CC[C@H](C)[C@@H]1NC(=O)[C@H](Cc2ccc(OCC(=O)N3CCN(CC(=O)O)CC3)cc2)NC(=O)[C@H](Cc2ccc(O)cc2)NC(=O)[C@H](CC(N)=O)NC(=O)[C@H](Cc2c[nH]c3ncccc23)NC(=O)[C@H](C(C)C)NC(=O)[C@H](Cc2cccc(Cl)c2)N(C)C(=O)[C@H](C(C)C)NC(=O)[C@H](C)NC(=O)CSC[C@@H](C(=O)NCCOCCOCCOCCOCCC(N)=O)NC(=O)[C@H](Cc2ccc(O)cc2)N(C)C(=O)[C@H](Cc2ccncc2)NC(=O)[C@H](CCCNC(=N)N)NC(=O)[C@H](CCCCNC(=O)N2CCN(CC(=O)O)CC2)NC(=O)[C@H]([C@@H](C)CC)NC1=O [compound 18] | 1.88 | 30 |

Reference: EP4667483A1, “HUMAN TRANSFERRIN RECEPTOR-BINDING PEPTIDE” (JCR Pharmaceuticals Co., Ltd., priority 2023, dated 2024)
